According to patent US20240209028A1, “CNP COMPOUNDS” (priority 2022, published 2024):
Starred links: 1 amine or outer side, 2 acyl side, 3 side chain; linkers in the order of their positions; H or OH if unused. Positions of bridges follow the written chain, without caps; N, C: chain ends. Residues, ends and D or L forms follow the SMILES beside them. *: point of attachment. C18 diacid = O=C(O)CCCCCCCCCCCCCCCCC(=O)*; γGlu = O=C(O)[C@H](CCC(=O)[*:2])N[*:1]; X1 = O=C(CCCCCCCCCCCCCCCCc1nnn[nH]1)*; AEEA = NCCOCCOCC(=O)O

Target: T1, human natriuretic peptide receptor 2 (hNPR2) (Homo sapiens, UniProt P20594)
T1 construct: expressed in transfected cells; host or cells: HEK293 (ATCC CRL-1573), clone 35, co-transfected with pGloSensor-42F
T1 sequence (P20594 23-1047): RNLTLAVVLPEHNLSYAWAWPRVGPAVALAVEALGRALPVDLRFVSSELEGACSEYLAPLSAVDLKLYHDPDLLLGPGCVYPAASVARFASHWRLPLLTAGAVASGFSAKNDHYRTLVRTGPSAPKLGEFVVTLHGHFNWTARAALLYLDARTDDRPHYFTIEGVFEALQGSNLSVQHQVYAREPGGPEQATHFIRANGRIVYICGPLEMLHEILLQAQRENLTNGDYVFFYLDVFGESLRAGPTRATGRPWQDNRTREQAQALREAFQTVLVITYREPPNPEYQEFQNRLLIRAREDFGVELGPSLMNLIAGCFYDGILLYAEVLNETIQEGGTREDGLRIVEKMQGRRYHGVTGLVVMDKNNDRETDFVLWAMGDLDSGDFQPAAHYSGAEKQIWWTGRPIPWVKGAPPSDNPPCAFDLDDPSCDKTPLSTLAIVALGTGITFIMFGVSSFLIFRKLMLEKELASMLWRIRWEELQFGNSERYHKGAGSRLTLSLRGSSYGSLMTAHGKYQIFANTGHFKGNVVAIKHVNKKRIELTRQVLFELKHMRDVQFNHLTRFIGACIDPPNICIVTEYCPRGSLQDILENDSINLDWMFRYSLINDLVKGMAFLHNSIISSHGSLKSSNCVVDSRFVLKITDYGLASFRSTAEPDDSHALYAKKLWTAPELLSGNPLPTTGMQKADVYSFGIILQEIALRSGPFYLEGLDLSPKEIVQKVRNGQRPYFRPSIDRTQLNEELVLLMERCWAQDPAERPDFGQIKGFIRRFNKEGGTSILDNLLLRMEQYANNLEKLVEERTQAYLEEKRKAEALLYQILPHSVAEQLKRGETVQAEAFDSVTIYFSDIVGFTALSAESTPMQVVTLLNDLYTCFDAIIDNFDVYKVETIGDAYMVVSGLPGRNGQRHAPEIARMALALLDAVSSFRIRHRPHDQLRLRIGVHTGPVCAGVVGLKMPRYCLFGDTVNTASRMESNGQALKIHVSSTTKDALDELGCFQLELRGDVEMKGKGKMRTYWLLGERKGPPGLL
Assay: In vitro hNPR2 activity assay (cGMP GloSensor reporter, HEK293)
Type: cell-based
Settings: potency relative to CNP22 (0065)
Outline: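 Potency is the EC50 from a four-parameter logistic fit, also expressed relative to the in-plate CNP22 control (×100), with at least two replicates. Compounds (ten concentrations, […], HSA-free diluent with 1% OVA, 0.01% Tween20) were incubated 30 min at 37 °C on HEK293 cells co-expressing hNPR2 and a GloSensor cGMP luciferase. Luminescence detected with Bright-Glo.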

CC[C@H](C)[C@@H]1NC(=O)[C@H](CCCNC(=N)N)NC(=O)[C@H](CC(=O)O)NC(=O)[C@H](CC(C)C)NC(=O)[C@@H]2CCCN2C(=O)[C@H](CC(C)C)NC(=O)CNC(=O)[C@H](Cc2ccccc2)NC(=O)[C@@H](NC(=O)CNC(=O)[C@H](CCC(N)=O)NC(=O)[C@H](CO)NC(=O)[C@H](CC(C)C)NC(=O)CNC(=O)[C@H](CO)NC(=O)[C@H](CCCCN)NC(=O)[C@H](CCC(N)=O)NC(=O)[C@H](C)NC(=O)CNC(=O)[C@H](Cc2c[nH]cn2)NC(=O)[C@H](Cc2ccc(O)cc2)NC(=O)[C@H](CCCCN)NC(=O)[C@H](CCCNC(=N)N)NC(=O)[C@H](C)NC(=O)COCCOCCNC(=O)COCCOCCNC(=O)CC[C@H](NC(=O)CC[C@H](NC(=O)CCCCCCCCCCCCCCCCc2nnn[nH]2)C(=O)O)C(=O)O)CSSC[C@@H](C(=O)O)NC(=O)CNC(=O)[C@H](CC(C)C)NC(=O)CNC(=O)[C@H](CO)NC(=O)[C@H](CC(C)C)NC(=O)[C@H](CO)NC(=O)CNC1=O [compound 1426] ({X1-γGlu-γGlu-AEEA-AEEA}-ARKYHGAQKSGLSQGCFGLPLDRIGSLSGLGC-OH; disulfide 16-32)
hNPR2 0% HSA. [EC50% rel CNP]: 76.2%

CC[C@H](C)[C@@H]1NC(=O)[C@H](CCCNC(=N)N)NC(=O)[C@H](CC(=O)O)NC(=O)[C@H](CC(C)C)NC(=O)[C@@H]2CCCN2C(=O)[C@H](CC(C)C)NC(=O)CNC(=O)[C@H](Cc2ccccc2)NC(=O)[C@@H](NC(=O)CNC(=O)[C@H](CCC(N)=O)NC(=O)[C@H](CO)NC(=O)CNC(=O)CNC(=O)[C@H](CCCCN)NC(=O)[C@H](Cc2c[nH]cn2)NC(=O)[C@H](CCC(N)=O)NC(=O)[C@H](C)NC(=O)CNC(=O)[C@H](CCC(=O)O)NC(=O)[C@H](Cc2ccc(O)cc2)NC(=O)[C@H](CCCCN)NC(=O)[C@H](CCCNC(=N)N)NC(=O)[C@H](C)NC(=O)COCCOCCNC(=O)COCCOCCNC(=O)COCCOCCNC(=O)COCCOCCNC(=O)CC[C@H](NC(=O)CC[C@H](NC(=O)CCCCCCCCCCCCCCCCC(=O)O)C(=O)O)C(=O)O)CSSC[C@@H](C(=O)O)NC(=O)CNC(=O)[C@H](CC(C)C)NC(=O)CNC(=O)[C@H](CO)NC(=O)[C@H](CC(C)C)NC(=O)[C@H](CO)NC(=O)CNC1=O [compound 1432] ({C18 diacid-γGlu-γGlu-AEEA-AEEA-AEEA-AEEA}-ARKYEGAQHKGGSQGCFGLPLDRIGSLSGLGC-OH; disulfide 16-32)
hNPR2 0% HSA. [EC50% rel CNP]: 26.0%

CC[C@H](C)[C@@H]1NC(=O)[C@H](CCCNC(=N)N)NC(=O)[C@H](CC(=O)O)NC(=O)[C@H](CC(C)C)NC(=O)[C@@H]2CCCN2C(=O)[C@H](CC(C)C)NC(=O)CNC(=O)[C@H](Cc2ccccc2)NC(=O)[C@@H](NC(=O)CNC(=O)[C@H](CCC(N)=O)NC(=O)[C@H](CO)NC(=O)CNC(=O)CNC(=O)[C@H](CCCCN)NC(=O)[C@H](CCCCN)NC(=O)[C@H](CCC(N)=O)NC(=O)[C@H](C)NC(=O)CNC(=O)[C@H](Cc2c[nH]cn2)NC(=O)[C@H](Cc2ccc(O)cc2)NC(=O)COCCOCCNC(=O)COCCOCCNC(=O)COCCOCCNC(=O)COCCOCCNC(=O)CC[C@H](NC(=O)CC[C@H](NC(=O)CCCCCCCCCCCCCCCCC(=O)O)C(=O)O)C(=O)O)CSSC[C@@H](C(=O)O)NC(=O)CNC(=O)[C@H](CC(C)C)NC(=O)CNC(=O)[C@H](CO)NC(=O)[C@H](CC(C)C)NC(=O)[C@H](CO)NC(=O)CNC1=O [compound 1434] ({C18 diacid-γGlu-γGlu-AEEA-AEEA-AEEA-AEEA}-YHGAQKKGGSQGCFGLPLDRIGSLSGLGC-OH; disulfide 13-29)
hNPR2 0% HSA. [EC50% rel CNP]: 29.0%

CC[C@H](C)[C@@H]1NC(=O)[C@H](CCCNC(=N)N)NC(=O)[C@H](CC(=O)O)NC(=O)[C@H](CC(C)C)NC(=O)[C@@H]2CCCN2C(=O)[C@H](CC(C)C)NC(=O)CNC(=O)[C@H](Cc2ccccc2)NC(=O)[C@@H](NC(=O)CNC(=O)[C@H](CCC(N)=O)NC(=O)[C@H](CO)NC(=O)[C@H](CC(C)C)NC(=O)CNC(=O)[C@H](CCCCN)NC(=O)[C@H](CCCCN)NC(=O)[C@H](CCC(N)=O)NC(=O)[C@H](C)NC(=O)CNC(=O)[C@H](CCCCN)NC(=O)[C@H](Cc2ccc(O)cc2)NC(=O)[C@H](CCCCN)NC(=O)[C@H](CCCNC(=N)N)NC(=O)[C@H](C)NC(=O)COCCOCCNC(=O)COCCOCCNC(=O)CC[C@H](NC(=O)CC[C@H](NC(=O)CC[C@H](NC(=O)CC[C@H](NC(=O)CC[C@H](NC(=O)CCCCCCCCCCCCCCCCC(=O)O)C(=O)O)C(=O)O)C(=O)O)C(=O)O)C(=O)O)CSSC[C@@H](C(=O)O)NC(=O)CNC(=O)[C@H](CC(C)C)NC(=O)CNC(=O)[C@H](CO)NC(=O)[C@H](CC(C)C)NC(=O)[C@H](CO)NC(=O)CNC1=O [compound 1453] ({C18 diacid-γGlu-γGlu-γGlu-γGlu-γGlu-AEEA-AEEA}-ARKYKGAQKKGLSQGCFGLPLDRIGSLSGLGC-OH; disulfide 16-32)
hNPR2 0% HSA. [EC50% rel CNP]: 33.5%

CC[C@H](C)[C@@H]1NC(=O)[C@H](CCCNC(=N)N)NC(=O)[C@H](CC(=O)O)NC(=O)[C@H](CC(C)C)NC(=O)[C@@H]2CCCN2C(=O)[C@H](CC(C)C)NC(=O)CNC(=O)[C@H](Cc2ccccc2)NC(=O)[C@@H](NC(=O)CNC(=O)[C@H](CCC(N)=O)NC(=O)[C@H](CO)NC(=O)[C@H](CO)NC(=O)CNC(=O)[C@H](CCCCN)NC(=O)[C@H](CCCCN)NC(=O)[C@H](CCC(N)=O)NC(=O)[C@H](C)NC(=O)CNC(=O)[C@@H]2CCCN2C(=O)[C@H](C)NC(=O)[C@H](CCC(N)=O)NC(=O)CNC(=O)[C@@H]2CCCN2C(=O)[C@H](C)NC(=O)[C@H](CCC(N)=O)NC(=O)CNC(=O)[C@@H]2CCCN2C(=O)[C@H](C)NC(=O)[C@H](CCC(N)=O)NC(=O)CNC(=O)COCCOCCNC(=O)COCCOCCNC(=O)CC[C@H](NC(=O)CCCCCCCCCCCCCCCCC(=O)O)C(=O)O)CSSC[C@@H](C(=O)O)NC(=O)CNC(=O)[C@H](CC(C)C)NC(=O)CNC(=O)[C@H](CO)NC(=O)[C@H](CC(C)C)NC(=O)[C@H](CO)NC(=O)CNC1=O [compound 1457] ({C18 diacid-γGlu-AEEA-AEEA}-GQAPGQAPGQAPGAQKKGSSQGCFGLPLDRIGSLSGLGC-OH; disulfide 23-39)
hNPR2 0% HSA. [EC50% rel CNP]: 79.4%

CC[C@H](C)[C@@H]1NC(=O)[C@H](CCCNC(=N)N)NC(=O)[C@H](CC(=O)O)NC(=O)[C@H](CC(C)C)NC(=O)[C@@H]2CCCN2C(=O)[C@H](CC(C)C)NC(=O)CNC(=O)[C@H](Cc2ccccc2)NC(=O)[C@@H](NC(=O)CNC(=O)[C@H](CCCCN)NC(=O)[C@H](CO)NC(=O)[C@H](CC(C)C)NC(=O)CNC(=O)[C@H](CCCCN)NC(=O)[C@H](CCCCN)NC(=O)[C@H](CCC(N)=O)NC(=O)[C@H](C)NC(=O)CNC(=O)[C@H](CCCCN)NC(=O)[C@H](Cc2ccc(O)cc2)NC(=O)[C@H](CCCCN)NC(=O)[C@H](CCCNC(=N)N)NC(=O)[C@H](C)NC(=O)COCCOCCNC(=O)COCCOCCNC(=O)CC[C@H](NC(=O)CC[C@H](NC(=O)CC[C@H](NC(=O)CC[C@H](NC(=O)CC[C@H](NC(=O)CCCCCCCCCCCCCCCCC(=O)O)C(=O)O)C(=O)O)C(=O)O)C(=O)O)C(=O)O)CSSC[C@@H](C(=O)O)NC(=O)CNC(=O)[C@H](CC(C)C)NC(=O)CNC(=O)[C@H](CO)NC(=O)[C@H](CC(C)C)NC(=O)[C@H](CO)NC(=O)CNC1=O [compound 1470] ({C18 diacid-γGlu-γGlu-γGlu-γGlu-γGlu-AEEA-AEEA}-ARKYKGAQKKGLSKGCFGLPLDRIGSLSGLGC-OH; disulfide 16-32)
hNPR2 0% HSA. [EC50% rel CNP]: 23.9%
